This note sets out measurements from patent publication US11524938B2, “Aromatic sulfonamide derivatives” (Bayer Pharma Aktiengesellschaft, priority 2016, dated 2022).

The target of one assay is T1, mouse P2X4 (Mus musculus, UniProt Q9JJX6).
T1 sequence (Q9JJX6 1-388): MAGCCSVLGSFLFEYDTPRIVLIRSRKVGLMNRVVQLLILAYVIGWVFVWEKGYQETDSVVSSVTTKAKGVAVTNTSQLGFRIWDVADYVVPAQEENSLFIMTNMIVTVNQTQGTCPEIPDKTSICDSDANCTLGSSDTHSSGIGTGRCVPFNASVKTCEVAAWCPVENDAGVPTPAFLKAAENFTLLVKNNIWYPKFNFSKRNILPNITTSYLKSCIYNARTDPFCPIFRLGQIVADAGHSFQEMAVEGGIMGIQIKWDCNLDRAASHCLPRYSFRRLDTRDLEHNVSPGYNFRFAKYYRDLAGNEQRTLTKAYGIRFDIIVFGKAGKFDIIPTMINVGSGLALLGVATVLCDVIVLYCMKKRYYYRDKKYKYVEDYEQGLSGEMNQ
Kind of assay: FLIPR assay, mouse P2X4 1321N1 Astrocytoma cells. Particulars: agonist Mg-ATP 0.5 μM (EC80). It counts as cell-based. On the procedure:
(§1) 1321N1 Astrocytoma cells stably expressing human P2X4 or rat P2X4 or mouse P2X4 were plated in Collagen I TC-treated microplate at a seeding density of 10000 cells/well and incubated overnight. P2X4 function was assessed by measuring intracellular calcium changes using the calcium-chelating dye Fluo8-AM (Molecular Devices) on a fluorescent imaging plate reader (FLEX/FLIPR station; Molecular Devices). On the day of the assay, the medium was removed and the cells were incubated for 30 min at 37 °C and 5% CO2 in 30 μL of dye buffer (Hank's balanced salt solution, 10 mM HEPES, 1.8 mM CaCl2, 1 mM MgCl2, 2 mM probenecid, 5 mM D-glucose monohydrate, 5 μM Fluo8-AM, pH=7.4). Compounds diluted in probenecid buffer (Hank's balanced salt solution, 10 mM HEPES, 1.8 mM CaCl2, 1 mM MgCl2, 2 mM probenecid, 5 mM D-glucose monohydrate, pH=7.4) were added in a volume of 10 μL and allowed to incubate for 30 min at room temperature. The final assay DMSO concentration was 0.25%. The agonist, Mg-ATP (Sigma), was added in a volume of 10 μL at a concentration representing the EC80 value. EC80 was determined to be 0.5 μM for human and mouse P2X4 and 5 μM for rat P2X4. The fluorescence was measured for an interval of 120 sec at 2 sec intervals. The excitation and emission wavelengths used to monitor fluorescence were 470-495 nm and 515-575 nm, respectively. The data was analyzed based on the increase in peak relative fluorescence units (RFU) compared to the basal fluorescence and the data was normalized to the agonist control. The compounds were tested in triplicates per plate and mean values were plotted in Excel XLFit to determine IC50 values, percentage of maximal inhibition and the Hill coefficients.

For another assay, the target named is T2, human P2X4 (Homo sapiens, UniProt Q99571).
T2 sequence (Q99571 1-388): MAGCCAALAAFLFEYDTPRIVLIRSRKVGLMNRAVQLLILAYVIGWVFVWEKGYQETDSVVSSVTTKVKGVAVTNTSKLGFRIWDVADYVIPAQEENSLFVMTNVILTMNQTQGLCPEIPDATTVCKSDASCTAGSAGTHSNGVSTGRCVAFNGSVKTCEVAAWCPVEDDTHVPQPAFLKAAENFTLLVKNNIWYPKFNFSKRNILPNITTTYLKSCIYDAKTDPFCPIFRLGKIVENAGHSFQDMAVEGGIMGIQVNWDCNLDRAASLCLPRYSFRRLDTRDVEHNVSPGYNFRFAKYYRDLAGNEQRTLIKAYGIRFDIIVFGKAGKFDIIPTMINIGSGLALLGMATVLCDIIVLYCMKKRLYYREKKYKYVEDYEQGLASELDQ
Nature of the assay: FLIPR assay, human P2X4 1321N1 Astrocytoma cells. In kind it is cell-based. Particulars: agonist Mg-ATP 0.5 μM (EC80). On the procedure: as §1

The target in a further assay is T3, rat P2X4 (Rattus norvegicus, UniProt P51577).
T3 sequence (P51577 1-388): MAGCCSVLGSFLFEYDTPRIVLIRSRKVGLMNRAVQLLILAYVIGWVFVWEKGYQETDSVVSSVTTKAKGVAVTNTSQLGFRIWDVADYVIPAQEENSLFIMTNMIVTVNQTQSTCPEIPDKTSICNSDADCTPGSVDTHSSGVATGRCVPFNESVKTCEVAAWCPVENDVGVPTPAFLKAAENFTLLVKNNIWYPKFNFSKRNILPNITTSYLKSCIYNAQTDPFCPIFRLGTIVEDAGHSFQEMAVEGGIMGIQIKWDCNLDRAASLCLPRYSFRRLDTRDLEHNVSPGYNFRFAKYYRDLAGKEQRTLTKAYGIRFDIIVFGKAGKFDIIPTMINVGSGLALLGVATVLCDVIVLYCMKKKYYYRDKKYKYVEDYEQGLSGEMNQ
Kind of assay: FLIPR assay, rat P2X4 1321N1 Astrocytoma cells. In kind it is cell-based. Conditions: agonist Mg-ATP 5 μM (EC80). The method, then: as §1

The subject of another assay is Sprague Dawley rats. Kind of assay: CFA-Induced Mechanical Hyperalgesia Model in Rat. It counts as in vivo. Particulars: 3 oral doses, 26 h after CFA, vs vehicle. The method, then:
Male Sprague Dawley rats were used. Mechanical hyperalgesia was induced by injecting […] of Complete Freund's Adjuvant (CFA) into the plantar surface of the left hind paw. Mechanical hyperalgesia was measured using the Pressure Application Measurement apparatus (Ugo Basile, Gemonio, Italy). Briefly, a linearly increasing pressure was applied to an area of approximately 50 mm^2 of the plantar side of the hind paw, until a behavioural response (paw withdrawal) was observed or until the pressure reached 1000 gf. The pressure at which the behavioural response occurred was recorded as the Paw Withdrawal Threshold (PWT). Both CFA-injected and contralateral PWTs were determined for each rat, in each treatment group and at each time point of the studies. Rats received 3 oral doses of test compound at approximately 12 hours interval starting 1 hour prior to CFA injection. Mechanical hyperalgesia testing was performed 2 hours before CFA injection and 2 hours after the last dosing (FIGS. 4a and 4b).
FIGS. 4a and 4b as nonbinding explanatory examples of compounds according to the invention represent Paw Withdrawal Threshold in gramm (y-axis) of the ipsilateral paw of all tested animals before CFA treatment and 26 h after CFA treatment and vehicle or Example 39 (FIG. 4a) or 326 (FIG. 4b) treatment. […]

As for `N#Cc1cnn(-c2ccc(NC(=O)Cc3ccccc3Cl)cc2S(N)(=O)=O)c1` [Example 39, 2-(2-Chlorophenyl)-N-[4-(4-cyano-1H-pyrazol-1-yl)-3-sulfamoylphenyl]acetamide], the “Mouse P2X4 1321N1 Astrocytoma Cells (FLIPR Assay) avg Efficacy [%]” value at mouse P2X4 amounted to 87%. Moreover, at human P2X4, the “Human P2X4 1321N1 Astrocytoma Cells (FLIPR Assay) avg Efficacy [%]” value is recorded as 83%. Besides, the “Rat P2X4 1321N1 Astrocytoma Cells (FLIPR Assay) avg Efficacy [%]” value at rat P2X4 stood at 87%. Further, the “Paw Withdrawal Threshold (PWT), ipsilateral paw” value in the assay with Sprague Dawley rats is “significantly increased PWT”.

With `NS(=O)(=O)c1cc(NC(=O)Cc2ccccc2Cl)ccc1-c1cnn(C(F)F)c1` [Example 326, 2-(2-Chlorophenyl)-N-{4-[1-(difluoromethyl)-1H-pyrazol-4-yl]-3-sulfamoylphenyl}acetamide], the “Mouse P2X4 1321N1 Astrocytoma Cells (FLIPR Assay) avg Efficacy [%]” value at mouse P2X4 is 87%. On human P2X4, the “Human P2X4 1321N1 Astrocytoma Cells (FLIPR Assay) avg Efficacy [%]” value is 80%. Further, the “Rat P2X4 1321N1 Astrocytoma Cells (FLIPR Assay) avg Efficacy [%]” value on rat P2X4 was found to be 99%. Also, in the assay with Sprague Dawley rats, the “Paw Withdrawal Threshold (PWT), ipsilateral paw” value is reported as “significantly increased PWT”.
